# Reference: ChEMBL document CHEMBL4406855, “Design, synthesis and biological evaluation of N-(3-(1H-tetrazol-1-yl)phenyl)isonicotinamide derivatives as novel xanthine oxidase inhibitors” (Eur J Med Chem, 2019)
# Molecular target: Xanthine dehydrogenase/oxidase (Bos taurus, UniProt P80457)
# Experiment: Inhibition of bovine xanthine oxidase assessed as reduction in uric acid formation using xanthine as substrate preincubated for 10 mins followed by substrate addition measured at first 2 mins by spectrophotometric analysis
# Chain of Xanthine dehydrogenase/oxidase (P80457 whole entry): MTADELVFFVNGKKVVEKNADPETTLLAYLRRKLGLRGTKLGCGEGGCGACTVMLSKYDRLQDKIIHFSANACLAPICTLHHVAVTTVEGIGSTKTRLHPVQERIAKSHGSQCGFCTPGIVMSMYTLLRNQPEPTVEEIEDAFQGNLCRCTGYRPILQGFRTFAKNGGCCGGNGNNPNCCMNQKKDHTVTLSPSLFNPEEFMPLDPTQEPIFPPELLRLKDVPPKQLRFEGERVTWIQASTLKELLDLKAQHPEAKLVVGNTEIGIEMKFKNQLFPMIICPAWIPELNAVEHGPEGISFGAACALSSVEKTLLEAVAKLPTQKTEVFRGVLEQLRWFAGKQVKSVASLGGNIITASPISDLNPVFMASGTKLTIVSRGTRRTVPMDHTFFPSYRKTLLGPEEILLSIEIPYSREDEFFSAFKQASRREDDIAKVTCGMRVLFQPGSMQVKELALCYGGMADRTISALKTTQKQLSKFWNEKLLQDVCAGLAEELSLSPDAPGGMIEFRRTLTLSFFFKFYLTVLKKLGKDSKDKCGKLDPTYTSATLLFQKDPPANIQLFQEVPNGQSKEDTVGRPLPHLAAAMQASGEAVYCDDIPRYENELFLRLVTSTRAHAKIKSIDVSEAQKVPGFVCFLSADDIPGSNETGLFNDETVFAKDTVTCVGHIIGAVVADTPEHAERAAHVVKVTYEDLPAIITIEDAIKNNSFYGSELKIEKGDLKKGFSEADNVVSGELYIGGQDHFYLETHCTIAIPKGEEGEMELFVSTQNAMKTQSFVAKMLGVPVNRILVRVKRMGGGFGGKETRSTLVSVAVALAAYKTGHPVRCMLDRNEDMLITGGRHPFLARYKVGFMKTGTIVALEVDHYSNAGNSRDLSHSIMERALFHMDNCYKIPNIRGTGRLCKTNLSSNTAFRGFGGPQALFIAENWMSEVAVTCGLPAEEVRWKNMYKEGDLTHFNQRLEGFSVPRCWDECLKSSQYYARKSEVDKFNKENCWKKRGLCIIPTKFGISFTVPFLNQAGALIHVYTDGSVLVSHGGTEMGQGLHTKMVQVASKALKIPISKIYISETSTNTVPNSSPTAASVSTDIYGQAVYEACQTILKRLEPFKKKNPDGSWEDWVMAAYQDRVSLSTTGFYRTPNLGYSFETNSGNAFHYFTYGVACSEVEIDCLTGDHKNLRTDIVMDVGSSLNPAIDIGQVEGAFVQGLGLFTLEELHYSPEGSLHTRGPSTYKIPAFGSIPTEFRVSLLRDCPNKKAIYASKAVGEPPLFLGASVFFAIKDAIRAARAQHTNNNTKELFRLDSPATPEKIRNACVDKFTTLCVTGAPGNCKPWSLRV
row,IC50,SMILES
1,0.312 µM,N#Cc1ccccc1COc1ccc(NC(=O)c2ccncc2)cc1C#N
2,0.021 µM,N#Cc1cc(-c2n[nH]c(-c3ccncc3)n2)ccn1 [TOPIROXOSTAT]
